Reference: publication PMC6566410, “Novel Diamide-Based Benzenesulfonamides as Selective Carbonic Anhydrase IX Inhibitors Endowed with Antitumor Activity: Synthesis, Biological Evaluation and In Silico Insights” (International Journal of Molecular Sciences, 2019)

Tests used:
hCA I = hCA I (Homo sapiens, UniProt P00915); test: stopped-flow CO2 hydrase assay
Source text: An Applied Photophysics stopped-flow instrument was used for assaying the CA catalysed CO2 hydration activity, as reported earlier [17]. The inhibition constants were obtained by non-linear least-squares methods using PRISM 3 and the Cheng-Prusoff equation as reported earlier, and represent the mean from at least three different determinations. The four tested CA isofoms were recombinant ones obtained in-house as reported earlier [26, 27, 28, 29].

OVCAR-5 = test: NCI one-dose SRB assay; format: cell-based; conditions: Homo sapiens, OVCAR-5 (Ovarian Cancer), 1.00E-5 Molar, read-out: Growth Percent
Procedure, shortened: (§1)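 Single-dose screen, 10^−5 M, NCI-60 panel per DTP protocol; growth/viability by SRB colorimetry.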

MALME-3M = test: NCI one-dose SRB assay; format: cell-based; conditions: Homo sapiens, MALME-3M (Melanoma), 1.00E-5 Molar, read-out: Growth Percent
Procedure, shortened: as §1

NCI-H23 = test: NCI one-dose SRB assay; format: cell-based; conditions: Homo sapiens, NCI-H23 (Non-Small Cell Lung Cancer), 1.00E-5 Molar, read-out: Growth Percent
Procedure, shortened: as §1

UO-31 cells [1] = test: Annexin V-FITC/PI apoptosis assay; format: cell-based, human; conditions: for late apoptotic cells (UR) / early apoptotic cells (LR): UO-31, annexin V-FITC/PI; for late apoptotic cells (UR): control 0.29%; for early apoptotic cells (LR): control 0.85%
Protocol: To explore whether the anti-proliferative activity of diamide-based sulfonamides 5a and 5h is consistent with the induction of apoptosis within the UO-31 cancer cells, Annexin V-FITC/propidium iodide (AV/PI) dual staining assay was performed by flow cytometry (Figure 4).
Assay of the phosphatidylserine externalization was carried out using Annexin V-FITC/PI apoptosis detection kit (BD Biosciences, San Jose, CA, USA) following the manufacturer’s instructions, as reported previously.

[2] = system: renal cancer UO-31 cell line; test: MTT anti-proliferative assay; format: cell-based; conditions: Homo sapiens, mean ± S.D. of three separate experiments
Protocol: Staurosporine was adopted in the experiment as a reference anticancer drug.
Renal cancer UO-31 cell line was obtained from American Type Culture Collection (ATCC). UO-31 cells were seeded into 96-well plates at 1.8 x 10^4/well. Cells were grown in DMEM, and supplemented with 10% heat-inactivated fetal bovine serum, 1% L-glutamine (2.5 mM), HEPES buffer (10 mM), 50 μg/mL gentamycin.

UO-31 cells [3] = test: cell cycle analysis, DNA flow cytometry; format: cell-based, human; conditions: UO-31, at IC50 concentration, 24 h
Protocol: The effect of diamide-based benzenesulfonamides 5a and 5h on cell cycle progression was examined in renal UO-31 cancer cells, through a DNA flow cytometric assay (Figure 3).
Then, the treated cells were collected by centrifugation, fixed in ice-cold 70% (v/v) ethanol, washed with PBS, re-suspended with RNase (100 μg/mL), stained with PI (40 μg/mL), and analyzed by flow cytometry using FACS Calibur (Becton Dickinson, BD, USA). The cell cycle distributions were calculated utilizing CellQuest software 5.1 (Becton Dickinson).

BT-549 = test: NCI one-dose SRB assay; format: cell-based, human; conditions: BT-549 (Breast Cancer), 1.00E-5 Molar
Protocol: First, all diamide-based benzenesulfonamides herein reported 5a–h were screened for their antitumor activity at one dose (10^−5 M) assay against a panel of sixty cancer cell lines through the National Cancer Institute (NCI) Developmental Therapeutic Program (www.dtp.nci.nih.gov), according to US-NCI protocol. The cell growth and cell viability were evaluated using the sulforhodamine B (SRB) colorimetric assay.
This assay was carried out according to the protocol of the Drug Evaluation Branch, NCI, Bethesda. The cell growth and cell viability were evaluated using the sulforhodamine B (SRB) colorimetric assay, as reported earlier.

Chain of hCA I (P00915 whole entry): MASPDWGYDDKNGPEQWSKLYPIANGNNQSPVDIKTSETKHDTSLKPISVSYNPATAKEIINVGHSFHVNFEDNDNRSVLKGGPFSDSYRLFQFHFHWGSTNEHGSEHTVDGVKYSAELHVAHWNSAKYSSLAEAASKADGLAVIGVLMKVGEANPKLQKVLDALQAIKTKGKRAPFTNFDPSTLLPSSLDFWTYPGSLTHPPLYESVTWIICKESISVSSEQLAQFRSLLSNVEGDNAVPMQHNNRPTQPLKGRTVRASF

COc1ccc(C=C(NC(=O)c2ccccc2)C(=O)Nc2ccc(S(N)(=O)=O)cc2)cc1OC [Compound 5g, N-(1-(3,4-Dimethoxyphenyl)-3-oxo-3-((4-sulfamoylphenyl)amino)prop-1-en-2-yl)benzamide]
Ki (hCA I): 2.21 µM | activity at 10 µM (OVCAR-5): 103% | activity at 10 µM (MALME-3M): 101% | activity at 10 µM (NCI-H23): 102%

COc1ccc(C=C(NC(=O)c2ccccc2)C(=O)Nc2ccc(S(N)(=O)=O)cc2)c(OC)c1 [Compound 5f, N-(1-(2,4-Dimethoxyphenyl)-3-oxo-3-((4-sulfamoylphenyl)amino)prop-1-en-2-yl)benzamide]
Ki (hCA I): 5.13 µM | activity at 10 µM (OVCAR-5): 106% | activity at 10 µM (MALME-3M): 104% | activity at 10 µM (NCI-H23): 101%

NS(=O)(=O)c1ccc(NC(=O)C(=Cc2ccc(Cl)cc2)NC(=O)c2ccccc2)cc1 [Compound 5a, N-(1-(4-Chlorophenyl)-3-oxo-3-((4-sulfamoylphenyl)amino)prop-1-en-2-yl)benzamide]
late apoptotic cells (UR) (UO-31 cells [1]): 22.96% | early apoptotic cells (LR) (UO-31 cells [1]): 2.64% | IC50 [2]: 6.53 ± 0.38 µM | arrest in G2-M phase compared to control (UO-31 cells [3]): 2.2 fold | increase in percentage of cells at Sub-G1 compared to control (UO-31 cells [3]): 14 fold | Ki (hCA I): 3.96 µM | activity at 10 µM (OVCAR-5): 105% | activity at 10 µM (MALME-3M): 96.3% | activity at 10 µM (NCI-H23): 103%

NS(=O)(=O)c1ccc(NC(=O)C(=Cc2ccc(Br)cc2)NC(=O)c2ccccc2)cc1 [Compound 5c, N-(1-(4-Bromophenyl)-3-oxo-3-((4-sulfamoylphenyl)amino)prop-1-en-2-yl)benzamide]
Ki (hCA I): 2.4 µM | activity at 10 µM (OVCAR-5): 99.8% | activity at 10 µM (MALME-3M): 92.2% | activity at 10 µM (NCI-H23): 100%

Cc1ccc(C=C(NC(=O)c2ccccc2)C(=O)Nc2ccc(S(N)(=O)=O)cc2)cc1 [Compound 5d, N-(3-Oxo-3-((4-sulfamoylphenyl)amino)-1-(p-tolyl)prop-1-en-2-yl)benzamide]
Growth Percent (BT-549): 105.04% | Ki (hCA I): 0.796 µM | activity at 10 µM (OVCAR-5): 103% | activity at 10 µM (MALME-3M): 99% | activity at 10 µM (NCI-H23): 94.9%

NS(=O)(=O)c1ccc(NC(=O)C(=Cc2ccc(Cl)cc2Cl)NC(=O)c2ccccc2)cc1 [Compound 5b, N-(1-(2,4-Dichlorophenyl)-3-oxo-3-((4-sulfamoylphenyl)amino)prop-1-en-2-yl)benzamide]
IC50 [2]: 16.7 ± 0.92 µM | Growth Percent (BT-549): 89.13% | Ki (hCA I): 5.98 µM | activity at 10 µM (OVCAR-5): 108% | activity at 10 µM (MALME-3M): 93.2% | activity at 10 µM (NCI-H23): 107%

COc1ccc(C=C(NC(=O)c2ccccc2)C(=O)Nc2ccc(S(N)(=O)=O)cc2)cc1 [Compound 5e, N-(1-(4-Methoxyphenyl)-3-oxo-3-((4-sulfamoylphenyl)amino)prop-1-en-2-yl)benzamide]
Ki (hCA I): 1.01 µM | activity at 10 µM (OVCAR-5): 108% | activity at 10 µM (MALME-3M): 109% | activity at 10 µM (NCI-H23): 99.6%

Cc1ccc(C=C(NC(=O)c2ccccc2)C(=O)Nc2ccc(S(N)(=O)=O)cc2)o1 [Compound 5h, N-(1-(5-Methylfuran-2-yl)-3-oxo-3-((4-sulfamoylphenyl)amino)prop-1-en-2-yl)benzamide]
total increase in annexin V-FITC positive apoptotic cells (UR + LR) compared with control (UO-31 cells [1]; UO-31): 26.5 fold | late apoptotic cells (UR) (UO-31 cells [1]): 21.85% | early apoptotic cells (LR) (UO-31 cells [1]): 8.41% | IC50 [2]: 4.89 ± 0.22 µM | arrest in G2-M phase compared to control (UO-31 cells [3]): 2.5 fold | increase in percentage of cells at Sub-G1 compared to control (UO-31 cells [3]): 15.5 fold | Ki (hCA I): 8.18 µM | activity at 10 µM (OVCAR-5): 100% | activity at 10 µM (MALME-3M): 93.2% | activity at 10 µM (NCI-H23): 98.9%
